ChEMBL document CHEMBL3991601, “The target landscape of clinical kinase drugs” (Science, 2017)
The source made the active and inactive calls. Cut-off read from the data, not from the text of the source, for most assays here: actives have a measured Kd and inactives only a lower limit.

Legend:
[1] = biological target: T1, Acyl-CoA dehydrogenase family member 11 (Homo sapiens, UniProt Q709F0)
T1 sequence (Q709F0 whole entry): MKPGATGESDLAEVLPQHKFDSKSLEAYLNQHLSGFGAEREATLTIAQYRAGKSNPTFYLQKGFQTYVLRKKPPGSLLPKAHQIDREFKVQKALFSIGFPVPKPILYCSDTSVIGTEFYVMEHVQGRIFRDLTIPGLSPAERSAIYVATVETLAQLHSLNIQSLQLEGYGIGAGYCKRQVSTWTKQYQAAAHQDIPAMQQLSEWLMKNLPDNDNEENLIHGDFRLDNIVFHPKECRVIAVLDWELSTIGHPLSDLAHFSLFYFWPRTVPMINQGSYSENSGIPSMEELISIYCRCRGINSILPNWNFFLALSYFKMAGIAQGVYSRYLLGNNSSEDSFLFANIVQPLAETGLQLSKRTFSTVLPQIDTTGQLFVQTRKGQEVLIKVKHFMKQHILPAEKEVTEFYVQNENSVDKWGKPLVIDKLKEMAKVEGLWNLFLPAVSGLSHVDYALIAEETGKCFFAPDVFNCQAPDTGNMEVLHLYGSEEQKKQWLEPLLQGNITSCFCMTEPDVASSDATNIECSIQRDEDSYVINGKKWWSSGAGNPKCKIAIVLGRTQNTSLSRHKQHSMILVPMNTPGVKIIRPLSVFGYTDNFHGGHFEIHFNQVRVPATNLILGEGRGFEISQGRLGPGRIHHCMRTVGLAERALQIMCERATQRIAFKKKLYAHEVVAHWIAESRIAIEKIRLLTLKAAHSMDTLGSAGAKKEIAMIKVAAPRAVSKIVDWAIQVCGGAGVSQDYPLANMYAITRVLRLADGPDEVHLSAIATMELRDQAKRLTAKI

[2] = biological target: T2, Calcium/calmodulin-dependent protein kinase type IV (Homo sapiens, UniProt Q16566)
T2 sequence (Q16566 whole entry): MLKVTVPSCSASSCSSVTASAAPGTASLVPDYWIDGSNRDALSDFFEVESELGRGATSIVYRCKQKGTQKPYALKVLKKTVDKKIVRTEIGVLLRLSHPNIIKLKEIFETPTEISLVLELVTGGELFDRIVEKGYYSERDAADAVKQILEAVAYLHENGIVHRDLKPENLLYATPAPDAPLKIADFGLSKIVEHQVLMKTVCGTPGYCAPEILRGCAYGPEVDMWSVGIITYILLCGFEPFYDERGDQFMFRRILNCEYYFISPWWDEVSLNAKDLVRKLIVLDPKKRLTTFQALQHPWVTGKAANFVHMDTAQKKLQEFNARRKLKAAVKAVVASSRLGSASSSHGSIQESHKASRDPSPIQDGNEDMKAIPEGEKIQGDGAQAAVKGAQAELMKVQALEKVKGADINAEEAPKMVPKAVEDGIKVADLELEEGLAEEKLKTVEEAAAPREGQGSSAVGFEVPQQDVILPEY

[3] = biological target: Casein kinase I isoform epsilon (Homo sapiens, UniProt P49674)
Ephrin type-B receptor 2 = biological target: T3, Ephrin type-B receptor 2 (Homo sapiens, UniProt P29323)
T3 sequence (P29323 whole entry): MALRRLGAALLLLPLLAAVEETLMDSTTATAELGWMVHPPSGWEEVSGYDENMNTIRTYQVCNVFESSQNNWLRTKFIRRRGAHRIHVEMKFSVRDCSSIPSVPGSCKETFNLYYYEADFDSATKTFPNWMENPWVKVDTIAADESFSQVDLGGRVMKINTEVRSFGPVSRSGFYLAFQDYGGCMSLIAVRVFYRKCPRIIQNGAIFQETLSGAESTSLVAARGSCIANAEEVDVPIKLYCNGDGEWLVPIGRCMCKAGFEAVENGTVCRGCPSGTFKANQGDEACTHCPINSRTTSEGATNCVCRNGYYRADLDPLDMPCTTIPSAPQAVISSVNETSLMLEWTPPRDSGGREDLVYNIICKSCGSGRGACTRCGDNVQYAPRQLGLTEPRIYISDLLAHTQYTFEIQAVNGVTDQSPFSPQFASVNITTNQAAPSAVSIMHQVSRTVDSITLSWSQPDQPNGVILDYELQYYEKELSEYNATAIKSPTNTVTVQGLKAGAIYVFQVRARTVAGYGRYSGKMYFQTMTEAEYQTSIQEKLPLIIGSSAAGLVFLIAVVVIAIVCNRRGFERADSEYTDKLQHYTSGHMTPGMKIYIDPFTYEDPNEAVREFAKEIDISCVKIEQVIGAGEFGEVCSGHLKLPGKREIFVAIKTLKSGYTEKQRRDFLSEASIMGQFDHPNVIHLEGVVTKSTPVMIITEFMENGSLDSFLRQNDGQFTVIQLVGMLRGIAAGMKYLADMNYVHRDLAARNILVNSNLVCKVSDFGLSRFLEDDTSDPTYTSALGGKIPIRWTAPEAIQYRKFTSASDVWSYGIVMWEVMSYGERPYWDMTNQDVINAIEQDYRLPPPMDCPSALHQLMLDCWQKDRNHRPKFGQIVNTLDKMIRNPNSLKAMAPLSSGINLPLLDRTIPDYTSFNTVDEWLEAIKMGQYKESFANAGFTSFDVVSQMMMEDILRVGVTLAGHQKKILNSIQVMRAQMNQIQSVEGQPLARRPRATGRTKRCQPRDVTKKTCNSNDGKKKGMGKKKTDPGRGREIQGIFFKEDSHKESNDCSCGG

[4] = biological target: T4, Electron transfer flavoprotein subunit beta (Homo sapiens, UniProt P38117)
T4 sequence (P38117 whole entry): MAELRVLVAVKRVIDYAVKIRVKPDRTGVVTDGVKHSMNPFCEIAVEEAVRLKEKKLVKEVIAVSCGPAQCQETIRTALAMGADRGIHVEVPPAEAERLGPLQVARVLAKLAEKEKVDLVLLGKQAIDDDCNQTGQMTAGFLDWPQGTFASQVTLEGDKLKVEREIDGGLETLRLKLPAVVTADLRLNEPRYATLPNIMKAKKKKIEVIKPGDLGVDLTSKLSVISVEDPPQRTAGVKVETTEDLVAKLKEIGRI

Pyridoxal kinase = biological target: T5, Pyridoxal kinase (Homo sapiens, UniProt O00764)
T5 sequence (O00764 whole entry): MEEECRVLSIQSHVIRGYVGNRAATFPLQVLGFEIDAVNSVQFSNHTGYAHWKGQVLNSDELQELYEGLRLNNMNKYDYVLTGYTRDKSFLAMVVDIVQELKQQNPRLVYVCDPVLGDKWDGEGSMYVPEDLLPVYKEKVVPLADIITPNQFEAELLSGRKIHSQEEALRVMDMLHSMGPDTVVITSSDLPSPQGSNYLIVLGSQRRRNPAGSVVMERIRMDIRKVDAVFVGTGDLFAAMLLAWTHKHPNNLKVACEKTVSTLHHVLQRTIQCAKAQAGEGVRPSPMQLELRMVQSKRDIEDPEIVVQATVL

[5] = biological target: Ribosomal protein S6 kinase alpha-1 (Homo sapiens, UniProt Q15418)
Note: in the data inactive means no Kd found up to 30 µM.

Sequence of Ribosomal protein S6 kinase alpha-1 (Q15418 whole entry): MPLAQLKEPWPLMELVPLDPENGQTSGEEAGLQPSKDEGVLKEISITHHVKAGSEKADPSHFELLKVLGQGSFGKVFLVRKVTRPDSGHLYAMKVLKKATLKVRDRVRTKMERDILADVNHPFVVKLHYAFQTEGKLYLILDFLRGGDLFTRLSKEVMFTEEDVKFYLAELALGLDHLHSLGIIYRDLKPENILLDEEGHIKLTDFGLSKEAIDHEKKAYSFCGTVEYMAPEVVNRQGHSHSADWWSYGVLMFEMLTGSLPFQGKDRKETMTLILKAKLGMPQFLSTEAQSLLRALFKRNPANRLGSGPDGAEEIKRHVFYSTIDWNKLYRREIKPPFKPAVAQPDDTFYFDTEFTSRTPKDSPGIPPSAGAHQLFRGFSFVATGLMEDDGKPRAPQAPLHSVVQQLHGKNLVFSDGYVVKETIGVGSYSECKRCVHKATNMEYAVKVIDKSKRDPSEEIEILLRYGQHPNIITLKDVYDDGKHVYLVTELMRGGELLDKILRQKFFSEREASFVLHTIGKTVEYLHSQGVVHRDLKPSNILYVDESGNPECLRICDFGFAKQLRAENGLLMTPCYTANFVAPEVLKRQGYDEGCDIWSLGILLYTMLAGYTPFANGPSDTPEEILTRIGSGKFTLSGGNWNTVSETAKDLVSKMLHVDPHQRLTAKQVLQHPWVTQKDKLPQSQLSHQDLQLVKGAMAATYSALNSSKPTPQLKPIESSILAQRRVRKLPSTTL
Sequence of Casein kinase I isoform epsilon (P49674 whole entry, canonical isoform): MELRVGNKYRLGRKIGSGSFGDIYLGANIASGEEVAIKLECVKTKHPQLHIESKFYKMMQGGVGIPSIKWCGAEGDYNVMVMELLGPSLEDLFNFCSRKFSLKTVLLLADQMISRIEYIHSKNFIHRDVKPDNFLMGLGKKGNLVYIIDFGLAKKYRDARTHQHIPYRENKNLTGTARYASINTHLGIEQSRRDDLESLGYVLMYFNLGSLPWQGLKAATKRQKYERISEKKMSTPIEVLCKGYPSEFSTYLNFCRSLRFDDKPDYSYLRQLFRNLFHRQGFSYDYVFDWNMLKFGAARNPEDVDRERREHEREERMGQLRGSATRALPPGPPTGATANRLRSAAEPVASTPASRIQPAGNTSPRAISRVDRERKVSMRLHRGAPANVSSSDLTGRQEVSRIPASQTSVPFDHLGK

## CCOc1ccn(-c2ccc(F)cc2)c(=O)c1C(=O)Nc1ccc(Oc2ccnc(N)c2Cl)c(F)c1 [BMS-777607]
[1]
  Kd: > 30 µM (inactive)
[2]
  Kd: > 30 µM (inactive)
[3]
  Kd: > 30 µM (inactive)
Ephrin type-B receptor 2
  Kd: > 30 µM (inactive)
[4]
  Kd: > 30 µM (inactive)
Pyridoxal kinase
  Kd: > 30 µM (inactive)
[5]
  Kd: > 30 µM (inactive)

## COc1cc2nccc(Oc3ccc(NC(=O)C4(C(=O)Nc5ccc(F)cc5)CC4)cc3)c2cc1OC [CABOZANTINIB]
[1]
  Kd: > 30 µM (inactive)
[2]
  Kd: > 30 µM (inactive)
[3]
  Kd: > 30 µM (inactive)
Ephrin type-B receptor 2
  Kd: > 30 µM (inactive)
[4]
  Kd: > 30 µM (inactive)
Pyridoxal kinase
  Kd: > 30 µM (inactive)
[5]
  Kd: > 30 µM (inactive)

## c1cc(OCCN2CCCCC2)cc(-c2n[nH]c3ccc(-c4nc[nH]n4)cc23)c1 [CC-401]
[1]
  Kd: > 30 µM (inactive)
[2]
  Kd: > 30 µM (inactive)
[3]
  Kd: 0.285 µM (active)
Ephrin type-B receptor 2
  Kd: > 30 µM (inactive)
[4]
  Kd: > 30 µM (inactive)
Pyridoxal kinase
  Kd: > 30 µM (inactive)
[5]
  Kd: > 30 µM (inactive)

## CC1(COc2ccc3c(c2)ncn3-c2ccc3cccc(N4CCC(N)CC4)c3n2)COC1 [CRENOLANIB]
[1]
  Kd: > 30 µM (inactive)
[2]
  Kd: > 30 µM (inactive)
[3]
  Kd: > 30 µM (inactive)
Ephrin type-B receptor 2
  Kd: > 30 µM (inactive)
[4]
  Kd: 0.012 µM
Pyridoxal kinase
  Kd: > 30 µM (inactive)
[5]
  Kd: > 30 µM (inactive)

## COc1cc2ncnc(Nc3ccc(F)c(Cl)c3)c2cc1NC(=O)/C=C/CN1CCCCC1 [DACOMITINIB ANHYDROUS]
[1]
  Kd: > 30 µM (inactive)
[2]
  Kd: > 30 µM (inactive)
[3]
  Kd: > 30 µM (inactive)
Ephrin type-B receptor 2
  Kd: > 30 µM (inactive)
[4]
  Kd: > 30 µM (inactive)
Pyridoxal kinase
  Kd: > 30 µM (inactive)
[5]
  Kd: > 30 µM (inactive)

## Cn1c(=O)n(-c2ccc(C(C)(C)C#N)cc2)c2c3cc(-c4cnc5ccccc5c4)ccc3ncc21 [DACTOLISIB]
[1]
  Kd: > 30 µM (inactive)
[2]
  Kd: > 30 µM (inactive)
[3]
  Kd: > 30 µM (inactive)
Ephrin type-B receptor 2
  Kd: > 30 µM (inactive)
[4]
  Kd: > 30 µM (inactive)
Pyridoxal kinase
  Kd: > 30 µM (inactive)
[5]
  Kd: > 30 µM (inactive)

## CC[C@@](C)(Nc1ccnc(-c2c[nH]c3ncccc23)n1)C(=O)NCC(F)(F)F [DECERNOTINIB]
[1]
  Kd: > 30 µM (inactive)
[2]
  Kd: > 30 µM (inactive)
[3]
  Kd: > 30 µM (inactive)
Ephrin type-B receptor 2
  Kd: > 30 µM (inactive)
[4]
  Kd: > 30 µM (inactive)
Pyridoxal kinase
  Kd: > 30 µM (inactive)
[5]
  Kd: > 30 µM (inactive)

## O=S(=O)(c1cccc2cnccc12)N1CCCNCC1 [FASUDIL]
[1]
  Kd: > 30 µM (inactive)
[2]
  Kd: > 30 µM (inactive)
[3]
  Kd: > 30 µM (inactive)
Ephrin type-B receptor 2
  Kd: > 30 µM (inactive)
[4]
  Kd: > 30 µM (inactive)
Pyridoxal kinase
  Kd: > 30 µM (inactive)
[5]
  Kd: > 30 µM (inactive)

## COc1cc(Nc2ncc(F)c(Nc3ccc4c(n3)N(COP(=O)(O)O)C(=O)C(C)(C)O4)n2)cc(OC)c1OC [FOSTAMATINIB]
[1]
  Kd: > 30 µM (inactive)
[2]
  Kd: > 30 µM (inactive)
[3]
  Kd: > 30 µM (inactive)
Ephrin type-B receptor 2
  Kd: > 30 µM (inactive)
[4]
  Kd: > 30 µM (inactive)
Pyridoxal kinase
  Kd: > 30 µM (inactive)
[5]
  Kd: > 30 µM (inactive)

## CCc1nc(C(N)=O)c(Nc2ccc(N3CCC(N4CCN(C)CC4)CC3)c(OC)c2)nc1NC1CCOCC1 [GILTERITINIB]
[1]
  Kd: > 30 µM (inactive)
[2]
  Kd: 0.421 µM (active)
[3]
  Kd: > 30 µM (inactive)
Ephrin type-B receptor 2
  Kd: > 30 µM (inactive)
[4]
  Kd: > 30 µM (inactive)
Pyridoxal kinase
  Kd: > 30 µM (inactive)
[5]
  Kd: 3.44 µM (active)

## Cc1c(Cn2c(C)nc3c(C(=O)O)cc(N4CCOCC4)cc32)cccc1C(F)(F)F [GSK-2636771]
[1]
  Kd: > 30 µM (inactive)
[2]
  Kd: > 30 µM (inactive)
[3]
  Kd: > 30 µM (inactive)
Ephrin type-B receptor 2
  Kd: > 30 µM (inactive)
[4]
  Kd: > 30 µM (inactive)
Pyridoxal kinase
  Kd: > 30 µM (inactive)
[5]
  Kd: > 30 µM (inactive)

## O=S(=O)(c1cccc2c(O)nccc12)N1CCCNCC1 [HYDROXYFASUDIL]
[1]
  Kd: > 30 µM (inactive)
[2]
  Kd: > 30 µM (inactive)
[3]
  Kd: > 30 µM (inactive)
Ephrin type-B receptor 2
  Kd: > 30 µM (inactive)
[4]
  Kd: > 30 µM (inactive)
Pyridoxal kinase
  Kd: > 30 µM (inactive)
[5]
  Kd: > 30 µM (inactive)

## C#Cc1cccc(Nc2ncnc3cc4c(cc23)OCCOCCOCCO4)c1 [ICOTINIB]
[1]
  Kd: > 30 µM (inactive)
[2]
  Kd: > 30 µM (inactive)
[3]
  Kd: > 30 µM (inactive)
Ephrin type-B receptor 2
  Kd: > 30 µM (inactive)
[4]
  Kd: > 30 µM (inactive)
Pyridoxal kinase
  Kd: > 30 µM (inactive)
[5]
  Kd: > 30 µM (inactive)

## COc1cc2ncnc3c2cc1OCCCCCN(C)Cc1ccc(Br)cc1N3 [JNJ-26483327]
[1]
  Kd: > 30 µM (inactive)
[2]
  Kd: > 30 µM (inactive)
[3]
  Kd: > 30 µM (inactive)
Ephrin type-B receptor 2
  Kd: > 30 µM (inactive)
[4]
  Kd: > 30 µM (inactive)
Pyridoxal kinase
  Kd: > 30 µM (inactive)
[5]
  Kd: > 30 µM (inactive)

## C[C@]1(O)C[C@@H](c2nc(-c3ccc4ccc(-c5ccccc5)nc4c3)c3c(N)nccn32)C1 [LINSITINIB]
[1]
  Kd: > 30 µM (inactive)
[2]
  Kd: > 30 µM (inactive)
[3]
  Kd: > 30 µM (inactive)
Ephrin type-B receptor 2
  Kd: > 30 µM (inactive)
[4]
  Kd: > 30 µM (inactive)
Pyridoxal kinase
  Kd: > 30 µM (inactive)
[5]
  Kd: > 30 µM (inactive)

## Cc1ccc(C(=O)Nc2ccc(Oc3cc4cnn(C)c4cc3-c3cn[nH]c3)c(F)c2)c(=O)n1-c1ccc(F)cc1 [MERESTINIB]
[1]
  Kd: > 30 µM (inactive)
[2]
  Kd: 3.26 µM (active)
[3]
  Kd: > 30 µM (inactive)
Ephrin type-B receptor 2
  Kd: > 30 µM (inactive)
[4]
  Kd: > 30 µM (inactive)
Pyridoxal kinase
  Kd: > 30 µM (inactive)
[5]
  Kd: > 30 µM (inactive)

## O=C(NOC[C@H](O)CO)c1ccc(F)c(F)c1Nc1ccc(I)cc1F [MIRDAMETINIB]
[1]
  Kd: > 30 µM (inactive)
[2]
  Kd: > 30 µM (inactive)
[3]
  Kd: > 30 µM (inactive)
Ephrin type-B receptor 2
  Kd: > 30 µM (inactive)
[4]
  Kd: > 30 µM (inactive)
Pyridoxal kinase
  Kd: > 30 µM (inactive)
[5]
  Kd: > 30 µM (inactive)
